{"source": "paper PMC9501810", "about": "“Bitter Peptides YFYPEL, [sequence], and [sequence], Released during Gastric Digestion of Casein, Stimulate Mechanisms of Gastric Acid Secretion via Bitter Taste Receptors TAS2R16 and TAS2R38” (Journal of Agricultural and Food Chemistry, 2022)", "assay_type_in_all_cases": "cell-based, human", "key": {"[1]": {"test_system": "TAS2R38", "assay": "Proton secretion assay in TAS2R38 knock-down vs mock-transfected HGT-1 cells", "settings": "TAS2R38kd vs mock-transfected HGT-1 cells, VAPFPEVF 17.5 µM, YFYPEL 0.03 µM, YQEPVLGPVRGPFPIIV 0.4 µM, 10 min, mean ± SEM", "method": "The measurement of proton secretion from HGT-1 cells represents a well-established model for the identification of bitter compounds. By affecting extraoral bitter taste receptors with bitter compounds, a modulatory effect on proton secretion can be measured. For this purpose, cells were washed with KRHB and incubated with 3 μM of the intracellular pH indicator 1,5 carboxy-seminaphto-rhodafluor acetoxymethyl ester (SNARF-1-AM) under standard conditions. After 30 min, the cells were washed again with KRHB and then incubated with casein (0.01–10 μM equimolar related to the relevant forms αS1- and β-casein), hydrolysate (0.01–10 μM), or the peptides (0.01–200 μM). […] All substances were dissolved and diluted in KRHB. 1 mM histamine was used as a positive control. Measurements were performed using FlexStation 3 (Molecular Devices, USA). The excitation wavelength was 488 nm, and the emission wavelengths were 580 and 640 nm. For calibration (pH range 7.0–8.0), the intracellular and extracellular pH was adjusted with 2 μM nigericin in potassium buffer (20 mM NaCl, 110 mM KCl, 1 mM CaCl2, 1 mM MgSO4, 18 mM D-glucose, and 20 mM HEPES). The intracellular proton index (IPX) was calculated as the log2 value of the 580/640 ratio and compared with cells without treatment. Negative values represent increased secretion of protons and therefore stimulation of mechanisms regulating gastric acid secretion in HGT-1 cells. In contrast, positive values represent an inhibition of secretion compared to the untreated control.\nExpression of TAS2R16 and TAS2R38 was reduced by treatment of HGT-1 cells with siRNA. 100,000 cells per well were seeded 1 day before the experiment into a 24-well plate. All reagents and siRNA were purchased from Thermo Fisher Scientific, USA (cytotoxicity was excluded by MTT). Transfection was performed with Lipofectamine RNAiMAX in Opti-Medium according to the manufacturer’s protocol. 1–50 nM of different siRNA sequences (HSS121396 and HSS181763 for TAS2R16 and HSS108754 and HSS108756 for TAS2R38) and three different incubation times (24, 48, and 72 h) were tested. Mock control experiments were performed analogously with 1 or 10 nM Stealth RNAi siRNA negative control. To verify the functionality of the transfection process, verified 10 nM siRNA targeting MAPK1 (VHS40312) was used (positive control). The transfection rate was checked by qPCR as described in section 2.11. For the proton secretion assays, 20,000 cells per well were seeded 1 day before transfection into a black 96-well plate. After 72 h of transfection, proton secretion activities of TAS2R16 knock-down or TAS2R38 knock-down HGT-1 were compared with the mock transfected cells by means of ΔIPX."}, "[2]": {"test_system": "TAS2R4", "assay": "RT-qPCR gene expression of TAS2R4 in HGT-1 cells", "settings": "VAPFPEVF 17.5 µM, YFYPEL 0.03 µM, YQEPVLGPVRGPFPIIV 0.4 µM, normalized to PPIA and GAPDH and untreated cells, mean, n = 3–5", "method": "(§1) For mRNA expression analysis, 800,000 cells were seeded in a T25 cell culture flask (25 cm^2) 1 day before the experiment. After incubation with 17.5 μM […], 0.03 μM YFYPEL, or 0.4 μM […] for 15, 30, 60, and 120 min, RNA was isolated using the peqGOLD RNA Kit (VWR Peqlab, USA) following the manufacturer’s protocol. Determination of RNA concentration (A260/A280 between 2.03 and 2.09) was performed on a NanoDrop One^c (Thermo Fisher Scientific Inc., USA). RNA integrity number (RIN 9.9–10.0, version 2.6, assay class Eukaryote Total RNA Nano) was analyzed using a 2100 Bioanalyzer (Agilent Technologies, USA). Removal of gDNA and synthesis of cDNA were performed using the iScript gDNA Clear cDNA Synthesis Kit (BioRad, Feldkirchen, Germany) following the manufacturer’s protocol. Real-time-qPCR (RT-qPCR) was performed with 50 ng cDNA amplified with SsoAdvanced Universal SYBR Green Supermix (Bio-Rad Laboratories, Inc., USA). The sequences of the forward and reverse primers of the 25 TAS2Rs were taken from Liszt et al.([13]) (Supporting Information Table-SI 3). Verified primers for the TAS1Rs (TAS1R1: qHsaCID0013443; TAS1R2: qHsaCID0016106; TAS1R3: qHsaCED0002321) and for MAPK1 (qHsaCEP0050000) were obtained from Bio-Rad Laboratories. PPIA[37] and GAPDH[38] were used as reference genes. The effects of the peptides on gene expression were analyzed in comparison to untreated control cells."}, "[3]": {"test_system": "TAS2R7", "assay": "RT-qPCR gene expression of TAS2R7 in HGT-1 cells", "settings": "VAPFPEVF 17.5 µM, YFYPEL 0.03 µM, YQEPVLGPVRGPFPIIV 0.4 µM, normalized to PPIA and GAPDH and untreated cells, mean, n = 3–5", "method": "as §1"}, "[4]": {"test_system": "TAS2R8", "assay": "RT-qPCR gene expression of TAS2R8 in HGT-1 cells", "settings": "VAPFPEVF 17.5 µM, YFYPEL 0.03 µM, YQEPVLGPVRGPFPIIV 0.4 µM, normalized to PPIA and GAPDH and untreated cells, mean, n = 3–5", "method": "as §1"}, "[5]": {"test_system": "TAS2R14", "assay": "RT-qPCR gene expression of TAS2R14 in HGT-1 cells", "settings": "VAPFPEVF 17.5 µM, YFYPEL 0.03 µM, YQEPVLGPVRGPFPIIV 0.4 µM, normalized to PPIA and GAPDH and untreated cells, mean, n = 3–5", "method": "as §1"}, "[6]": {"test_system": "TAS2R19", "assay": "RT-qPCR gene expression of TAS2R19 in HGT-1 cells", "settings": "VAPFPEVF 17.5 µM, YFYPEL 0.03 µM, YQEPVLGPVRGPFPIIV 0.4 µM, normalized to PPIA and GAPDH and untreated cells, mean, n = 3–5", "method": "as §1"}, "[7]": {"test_system": "TAS2R40", "assay": "RT-qPCR gene expression of TAS2R40 in HGT-1 cells", "settings": "VAPFPEVF 17.5 µM, YFYPEL 0.03 µM, YQEPVLGPVRGPFPIIV 0.4 µM, normalized to PPIA and GAPDH and untreated cells, mean, n = 3–5", "method": "as §1"}, "[8]": {"test_system": "TAS2R41", "assay": "RT-qPCR gene expression of TAS2R41 in HGT-1 cells", "settings": "VAPFPEVF 17.5 µM, YFYPEL 0.03 µM, YQEPVLGPVRGPFPIIV 0.4 µM, normalized to PPIA and GAPDH and untreated cells, mean, n = 3–5", "method": "as §1"}, "[9]": {"test_system": "TAS1R1", "assay": "RT-qPCR gene expression of TAS1R1 in HGT-1 cells", "settings": "15/30/60/120 min, VAPFPEVF 17.5 µM, YQEPVLGPVRGPFPIIV 0.4 µM, n = 3", "method": "as §1"}, "[10]": {"test_system": "TAS1R3", "assay": "RT-qPCR gene expression of TAS1R3 in HGT-1 cells", "settings": "15/30/60/120 min, VAPFPEVF 17.5 µM, YQEPVLGPVRGPFPIIV 0.4 µM, n = 3", "method": "as §1"}}}
{"sequence": "VAPFPEVF [bitter casein peptide αS1-CN25–32]", "values": [{"measurement": "reduction of the peptide-induced stimulation of proton secretion in TAS2R38kd cells", "setting": "[1]; 72 h after 1 nM siRNA", "value": "37.5 ± 9.8", "unit": "%"}, {"measurement": "change of peptide-induced proton secretion, TAS2R38kd (in Figure 5E–G)", "setting": "[1]; negative = reduction", "value": "-37.5 ±9.8", "unit": "%"}, {"measurement": "change in gene expression of TAS2R4", "setting": "[2]; incubation 15 min", "value": 0.50, "unit": "fold change"}, {"measurement": "change in gene expression of TAS2R4", "setting": "[2]; incubation 30 min", "value": 1.14, "unit": "fold change"}, {"measurement": "change in gene expression of TAS2R4", "setting": "[2]; incubation 60 min", "value": 0.95, "unit": "fold change"}, {"measurement": "change in gene expression of TAS2R4", "setting": "[2]; incubation 120 min", "value": 1.42, "unit": "fold change"}, {"measurement": "change in gene expression of TAS2R7", "setting": "[3]; incubation 15 min", "value": 1.20, "unit": "fold change"}, {"measurement": "change in gene expression of TAS2R7", "setting": "[3]; incubation 30 min", "value": 0.71, "unit": "fold change"}, {"measurement": "change in gene expression of TAS2R7", "setting": "[3]; incubation 60 min", "value": 1.05, "unit": "fold change"}, {"measurement": "change in gene expression of TAS2R7", "setting": "[3]; incubation 120 min", "value": 0.62, "unit": "fold change"}, {"measurement": "change in gene expression of TAS2R8", "setting": "[4]; incubation 15 min", "value": 1.24, "unit": "fold change"}, {"measurement": "change in gene expression of TAS2R8", "setting": "[4]; incubation 30 min", "value": 2.25, "unit": "fold change"}, {"measurement": "change in gene expression of TAS2R8", "setting": "[4]; incubation 60 min", "value": 1.34, "unit": "fold change"}, {"measurement": "change in gene expression of TAS2R8", "setting": "[4]; incubation 120 min", "value": 2.04, "unit": "fold change"}, {"measurement": "change in gene expression of TAS2R14", "setting": "[5]; incubation 15 min", "value": 0.67, "unit": "fold change"}, {"measurement": "change in gene expression of TAS2R14", "setting": "[5]; incubation 30 min", "value": 0.97, "unit": "fold change"}, {"measurement": "change in gene expression of TAS2R14", "setting": "[5]; incubation 60 min", "value": 0.86, "unit": "fold change"}, {"measurement": "change in gene expression of TAS2R14", "setting": "[5]; incubation 120 min", "value": 1.08, "unit": "fold change"}, {"measurement": "change in gene expression of TAS2R19", "setting": "[6]; incubation 15 min", "value": 0.66, "unit": "fold change"}, {"measurement": "change in gene expression of TAS2R19", "setting": "[6]; incubation 30 min", "value": 1.22, "unit": "fold change"}, {"measurement": "change in gene expression of TAS2R19", "setting": "[6]; incubation 60 min", "value": 0.69, "unit": "fold change"}, {"measurement": "change in gene expression of TAS2R19", "setting": "[6]; incubation 120 min", "value": 1.25, "unit": "fold change"}, {"measurement": "change in gene expression of TAS2R40", "setting": "[7]; incubation 15 min", "value": 0.81, "unit": "fold change"}, {"measurement": "change in gene expression of TAS2R40", "setting": "[7]; incubation 30 min", "value": 1.54, "unit": "fold change"}, {"measurement": "change in gene expression of TAS2R40", "setting": "[7]; incubation 60 min", "value": 0.88, "unit": "fold change"}, {"measurement": "change in gene expression of TAS2R40", "setting": "[7]; incubation 120 min", "value": 1.42, "unit": "fold change"}, {"measurement": "change in gene expression of TAS2R41", "setting": "[8]; incubation 15 min", "value": 0.95, "unit": "fold change"}, {"measurement": "change in gene expression of TAS2R41", "setting": "[8]; incubation 30 min", "value": 2.32, "unit": "fold change"}, {"measurement": "change in gene expression of TAS2R41", "setting": "[8]; incubation 60 min", "value": 0.98, "unit": "fold change"}, {"measurement": "change in gene expression of TAS2R41", "setting": "[8]; incubation 120 min", "value": 1.90, "unit": "fold change"}, {"measurement": "change in expression of TAS1R1", "setting": "[9]", "value": "no significant effect"}, {"measurement": "change in expression of TAS1R3", "setting": "[10]", "value": "no significant effect"}]}
